# In patent US20230405063A1, “USE OF PROBIOTIC COMPONENT AND PHARMACEUTICAL COMPOSITION CONTAINING PROBIOTIC COMPONENT” (CHENGDU KUACHANGAOPU MEDICAL TECHNOLOGY CO., LTD., priority 2020, published 2023):
# Key:
# breast cancer 4T1 cells [1] = experiment: Tumor incidence rate after 4T1 cell transplantation (S4T1) on day 30 (Example 12, Table 18); type: in vivo, BALB/c mice; settings: cells transplanted on 30th day, observed 10th day after transplantation; for Series A S4T1 (tumor incidence rate of 4T1 cell transplantation): series A modeled mice, intratumoral injection; for Series B S4T1 (tumor incidence rate of 4T1 cell transplantation): series B unmodeled mice, intramuscular injection into right hind thigh
# Procedure: BALB/c mice were used as experimental subjects, in which modeled animals were used as series A and unmodeled animals as series B. […] The modeled animals were randomly divided into 18 groups, with 10 animals in each group, and the drugs according to Table 18 was administered via intratumoral injection. BALB/c mice were additionally taken as experimental subjects without modeling, and randomly divided into 18 groups, with 10 animals in each group, the drugs according to Table 18 was administered via intramuscular injection into the right hind thigh. All the study drugs comprising probiotic components were formulated as aqueous formulations according to the preparation method of Example 1, and the other drugs were formulated as aqueous solutions according to the existing well-known methods. Each group was administered twice at an interval of 3 days, and the dosage was 50 ul/mouse/time.
# breast cancer 4T1 cells [2] = experiment: Short- and medium/long-term relative tumor proliferation rate in 4T1 tumor-bearing BALB/c mice (Example 10, Table 16); type: in vivo; settings: intratumoral injection, dosed twice at interval of 7 days, 100 μl/mouse/time; for relative tumor proliferation rate R7 d: day 7 after last dose; for relative tumor proliferation rate R21 d: day 21 after last dose
# From the text: (§1) V=0.5×a×b^2, wherein a and b represent the length and width of the local lesion, respectively; Volume of the local lesion (e.g. tumor):
# (§2) Local lesion (e.g., tumor) proliferation rate (R)=TV/CV×100, wherein TV and CV are the local lesion volumes in the study group and negative control group, respectively;
# (§3) The method for determining the effect of combined drug administration in animal experiments was Burgi method (Burgi Y. Pharmacology; Drug actions and reactions. Cancerres. 1978, 38(2), 284-285). The Burgi method was modified by Zhengjun JIN (Zhengjun JIN, Equal probability and curve and “Q50”, Journal of the Second Shanghai Medical College; 1981, 1, 75-86) with q calculated as: q=EA+B/(EA+EB−EA×EB). In the following examples of the present invention, the combinational pharmaceutical efficacies (drug efficacies) of drug A and drug B co-administration was determined by ratio q of actual pharmaceutical efficacy (drug efficacy)/theoretical pharmaceutical efficacy (drug efficacy) according to Zhengjun JIN method, as follows.
# BALB/c mice were used as experimental subjects, and breast cancer 4T1 cells were used as modeling cells. 0.5×10^6 cells/mouse were injected into the right axilla subcutaneously for transplantation tumor modeling, and the average tumor volume of successfully modeled nude mice was 107.4 mm^3. The model animals were randomly divided into 17 groups.
# The drugs, formulated according to the method of Example 1, were administered according to Table 16. Each group was dosed twice with an interval of 7 days, and the injection volumes were 300 μl/mouse/time for groups 13 and 14, 100 μl/mouse/time for other groups. The drugs were administered by subaxillary administration of the right forelimb for group 15, and by intratumoral injection for other groups. Group 16 was administered sequentially (the first dose was aprobiotic semi-fluid-like component/cytotoxic drug/weak local acting compound, and the last dose was inactivated probiotics), while the other groups were administered with the same drug twice. On days 7 and 21 after the last dose, the tumor volumes of each group were measured (V7d, V21d), and the relative tumor proliferation rates (R7d, R21d) were calculated relative to the negative control group, respectively, so that the short-term therapeutic effectiveness (100%−R7d) and the medium- and long-term therapeutic effectiveness (100%−R21d) could be calculated, respectively.
# [3] = system: human liver cancer HepG2 cells; experiment: Tumor inhibition in HepG2 tumor-bearing nude mice (Example 2, Table 4); type: in vivo; settings: for Tumor weight (x ± s) / Tumor inhibition rate r: dosed once, 150 μl/mouse; for Tumor weight (x ± s): 7th day after administration; for Tumor inhibition rate r: 7th day, relative to negative control; for Ratio of tumor inhibition rates, intratumoral group / intravenous group of the same drug (E7/E1, E8/E2, E10/E4): same drug and dose, local vs systemic administration
# Procedure: The tumor-bearing nude mice were widely used for drug studies on chemotherapy rather than immunotherapy in patients with solid tumors. Taking nude mice as experimental subjects, human liver cancer HepG2 cells were used as modeling cells, and 1×10^5 cells/mouse were injected into the right axilla subcutaneously for transplantation tumor modeling, and the average tumor volume of successfully modeled nude mice was 161.3 mm^3. The model animals were randomly divided into 17 groups. The drugs were administered according to the drug and dosing method in Table 4. Each group was dosed once with an injection volume of 150 μl/mouse. On the 7th day after drug administration, the animals were euthanized, and after dissection, the tumor tissue was taken out to determine the tumor weight, and the tumor inhibition rate (r) was calculated relative to the negative control group.
# [4] = system: mouse embryonic fibroblasts 3T3; experiment: Local lesion inhibition in 3T3 fibroblast nodule model in nude mice (Example 6, Table 9); type: in vivo; settings: dosed twice at interval of 2 days, 150 μl/mouse/time, 7th day after final administration; for V (x ± s), volume of local lesions, series B / relative local lesion inhibition rate r′B: intra-nodal injection; for V (x ± s), volume of local lesions, series A / relative local lesion inhibition rate r′A: intraperitoneal injection
# From the text: as §1, §2, §3
# Nude mice were used as experimental subjects, and mouse embryonic fibroblasts 3T3 were used as modeling cells. 2×10^4 cells/mouse were injected into the right axilla subcutaneously for transplantation nodule modeling, and the average volume of tumor-like nodules in successfully modeled nude mice was 171.5 mm^3. The model animals were randomly divided into […], and the drugs were administered according to Table 9. Each group except for groups 21-24 were administered by intraperitoneal injection, intra-nodal injection. The drugs used in groups 21-24 were a composition of non-local administration dosage form (dosage form that a probiotic component and a co-administration substance could be administered separately). The administration route of series A was: intraperitoneal injection of probiotic component+intra-nodal injection of co-administration substance; and the administration route of series B was: intraperitoneal injection of co-administration substance+intra-nodal injection of probiotic component. Each group was dosed twice at an interval of 2 days, with an injection volume of 150 μl/mouse/time. On the 7th day after the final administration, the volume (V) of local lesions comprising fibroblasts was measured, and the relative local lesion inhibition rates (r′A, r′B) were calculated for series A and series B, respectively, as compared with the negative control group. Further, the actual drug efficacy/expected efficacy ratio q could also be calculated according to the therapeutic effect (local lesion inhibition rate).
# [5] = system: human pancreatic cancer cells (PANC-1); experiment: Tumor inhibition in PANC-1 tumor-bearing nude mice, administration volume study (Example 4, Table 6); type: in vivo; settings: intratumoral once
# Procedure: Nude mice were used as experimental subjects, and human pancreatic cancer cells (PANC-1) were used as modeling cells, 1×10^5 cells/mouse were injected into the right axilla subcutaneously for transplantation tumor modeling, and the average tumor volume of successfully modeled nude mice was 213.1 mm^3. The model animals were randomly divided into 16 groups, and the drugs were administered intratumorally according to the drug components and administration volumes in Table 6, and each group was administered once. The drugs in groups 1-12 were prepared according to the method of Example 1, wherein the inactivated probiotics were heat-inactivated Saccharomyces boulardii, the probiotic water-insoluble component particles were β-glucan particles, the probiotic water-soluble component was disrupted Saccharomyces boulardii supernatant component, and the mixture of the probiotic water-insoluble component particles and water-soluble component (abbreviated as probiotic component mixture) was disrupted Saccharomyces boulardii, preparation method used was the same as that of Example 3. On the 7th day after drug administration, the animals were euthanized, and the tumor tissues were taken out after dissection to determine the tumor weight, and the tumor inhibition rate (r) was calculated relative to the negative control group.
# [6] = injection volume 20 ul, administration volume/tumor volume 0.09, 7th day
# [7] = injection volume 50 ul, administration volume/tumor volume 0.23, 7th day
# [8] = injection volume 100 ul, administration volume/tumor volume 0.47, 7th day
compound,measurement,setting,value
"O=c1[nH]cc(F)c(=O)[nH]1 [1% 5-fluorouracil, 5-fluorouracil]",Series A S4T1 (tumor incidence rate of 4T1 cell transplantation),breast cancer 4T1 cells [1],100%
same,Series B S4T1 (tumor incidence rate of 4T1 cell transplantation),breast cancer 4T1 cells [1],100%
same,relative tumor proliferation rate R7 d,breast cancer 4T1 cells [2],51%
same,relative tumor proliferation rate R21 d,breast cancer 4T1 cells [2],93%
same,Tumor weight (x ± s),[3]; intratumoral injection,0.133 ± 0.094 g
same,Tumor inhibition rate r,[3]; intratumoral injection,49.5%
same,Tumor weight (x ± s),[3]; intravenous injection,0.139 ± 0.094 g
same,Tumor inhibition rate r,[3]; intravenous injection,42.3%
same,"Ratio of tumor inhibition rates, intratumoral group / intravenous group of the same drug (E7/E1, E8/E2, E10/E4)",[3],< 200%
same,"V (x ± s), volume of local lesions, series B",[4],1.226 ± 0.217 cm^3
same,relative local lesion inhibition rate r′B,[4],14.3%
same,"V (x ± s), volume of local lesions, series A",[4],1.225 ± 0.211 cm^3
same,relative local lesion inhibition rate r′A,[4],9.7%
"CCO [75% ethanol, ethanol]",Series A S4T1 (tumor incidence rate of 4T1 cell transplantation),breast cancer 4T1 cells [1],100%
same,Series B S4T1 (tumor incidence rate of 4T1 cell transplantation),breast cancer 4T1 cells [1],100%
same,Tumor inhibition rate r,[5]; [6],6.2%
same,Tumor weight (x ± s),[5]; [6],0.257 ± 0.110 g
same,Tumor inhibition rate r,[5]; [7],20.3%
same,Tumor weight (x ± s),[5]; [7],0.218 ± 0.115 g
same,Tumor inhibition rate r,[5]; [8],31.7%
same,Tumor weight (x ± s),[5]; [8],0.187 ± 0.064 g
same,relative tumor proliferation rate R7 d,breast cancer 4T1 cells [2],47%
same,relative tumor proliferation rate R21 d,breast cancer 4T1 cells [2],95%
same,Tumor weight (x ± s),[3]; intratumoral injection,0.122 ± 0.085 g
same,Tumor inhibition rate r,[3]; intratumoral injection,53.6%
same,Tumor weight (x ± s),[3]; intravenous injection,0.226 ± 0.113 g
same,Tumor inhibition rate r,[3]; intravenous injection,6.1%
same,"Ratio of tumor inhibition rates, intratumoral group / intravenous group of the same drug (E7/E1, E8/E2, E10/E4)",[3],> 200%
same,"V (x ± s), volume of local lesions, series B",[4],1.078 ± 0.221 cm^3
same,relative local lesion inhibition rate r′B,[4],24.7%
same,"V (x ± s), volume of local lesions, series A",[4],1.300 ± 0.197 cm^3
same,relative local lesion inhibition rate r′A,[4],4.2%
